Results taken from patent US20250333397A1 (REMIX THERAPEUTICS INC., priority 2021, published 2025).
pIC50: −log10 of the molar value. Where two headings read alike, the source gives them in different places.

How the values were obtained:
Type in all cases: cell-based, human
[1] = test system: HTT mRNA; experiment: RT-qPCR splicing assay, HTT canonical (CJ) and alternative (AJ) junction mRNA; conditions: Homo sapiens; for AC50: read-out: HTT AJ (AC50, increase in AJ mRNA)
Outline: (§1)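 A673 or K562 cells were treated 24 h at 37 °C with an 11-point 3-fold compound dilution series, top dose 10 uM final, DMSO ≤0.25%. Lysates went to one-step RT-qPCR for canonical (CJ) and alternative-exon (AJ) junctions; ΔCt vs GAPDH, GUSB or PPIA, normalized to DMSO, as 2^(-ΔΔCt).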

[2] = test system: MYB mRNA; experiment: RT-qPCR splicing assay, MYB canonical (CJ) and alternative (AJ) junction mRNA; conditions: for AC50: read-out: MYB AJ (AC50, increase in AJ mRNA)
Outline: as §1

[3] = test system: SMN2 mRNA; experiment: RT-qPCR splicing assay panel, SMN2 canonical junction (CJ) mRNA; conditions: Homo sapiens
Outline: as §1

[4] = test system: Target C mRNA; experiment: RT-qPCR splicing assay panel, Target C canonical junction (CJ) mRNA; conditions: Homo sapiens
Outline: as §1

[5] = 24 h, Table 3B, A673 or K562 cells, 24 h treatment
[6] = 24 h, Table 3B, A673 or K562 cells, 24 h treatment, read-out: HTT CJ (IC50, decrease in CJ mRNA)
[7] = Table 4B, gene panel, read-out: HTT (IC50, decrease in CJ mRNA levels)
[8] = Homo sapiens, 24 h, Table 3B, A673 or K562 cells, 24 h treatment
[9] = Homo sapiens, 24 h, Table 3B, A673 or K562 cells, 24 h treatment, read-out: MYB CJ (IC50, decrease in CJ mRNA)
[10] = Homo sapiens, Table 4B, gene panel, read-out: MYB (IC50, decrease in CJ mRNA levels)
[11] = Table 4B, gene panel, read-out: SMN2 (IC50, decrease in CJ mRNA levels)
[12] = Table 4B, gene panel, read-out: Target C (IC50, decrease in CJ mRNA levels)
[13] = 24 h, Table 3A, A673 or K562 cells, 24 h treatment
[14] = 24 h, Table 3A, A673 or K562 cells, 24 h treatment, read-out: HTT CJ (IC50, decrease in CJ mRNA)
[15] = canonical junction (CJ) mRNA, RT-qPCR panel, Table 4A, read-out: HTT, decrease in CJ mRNA levels, IC50
[16] = Homo sapiens, 24 h, Table 3A, A673 or K562 cells, 24 h treatment, read-out: MYB CJ (IC50, decrease in CJ mRNA)
[17] = Homo sapiens, canonical junction (CJ) mRNA, RT-qPCR panel, Table 4A, read-out: MYB, decrease in CJ mRNA levels, IC50
[18] = canonical junction (CJ) mRNA, RT-qPCR panel, Table 4A, read-out: SMN2, decrease in CJ mRNA levels, IC50
[19] = canonical junction (CJ) mRNA, RT-qPCR panel, Table 4A, read-out: Target C, decrease in CJ mRNA levels, IC50
[20] = Homo sapiens, 24 h, Table 3A, A673 or K562 cells, 24 h treatment

SMILES | AC50 [1, 5] | pIC50 [1, 6] | pIC50 [1, 7] | AC50 [2, 8] | pIC50 [2, 9] | pIC50 [2, 10] | pIC50 [3, 11] | pIC50 [4, 12] | AC50 [1, 13] | pIC50 [1, 14] | pIC50 [1, 15] | pIC50 [2, 16] | pIC50 [2, 17] | AC50 ([2]; Table 3A, A673 or K562 cells, 24 h treatment) | pIC50 [3, 18] | pIC50 [4, 19] | AC50 [2, 20]
Cc1nc2c(F)c(O)c(-c3ccc(N4CC[C@H](NC(C)(C)C)C4)nn3)cc2o1 [Compound 843] | > 10 µM | < 5.00 | < 5.00 | > 10 µM | < 5.00 | < 5.00 | < 5.00 | < 5.00 |  |  |  |  |  |  |  |  | 
CN([C@@H]1CCN(c2ccc(-c3ccc(-c4cn[nH]c4)cc3O)nn2)C1)C(C)(C)C [Compound 406, 2-{6-[(3R)-3-[tert-butyl(methyl)amino]pyrrolidin-1-yl]pyridazin-3-yl}-5-(1H-pyrazol-4-yl)phenol] |  |  |  |  |  |  |  |  | 0.1 to 1 µM | 6.00 to 7.00 | 6.00 to 7.00 | 6.00 to 7.00 | 6.00 to 7.00 | 1 to 10 µM | 6.00 to 7.00 | 6.00 to 7.00 | 
COc1cc(-c2ccc(-c3ccc(N4CC[C@@H](NC5CCC5)C4)nn3)c(O)c2)cnn1 [Compound 264] |  |  |  |  |  |  |  |  | 0.1 to 1 µM | > 7.00 | > 7.00 | 6.00 to 7.00 | 6.00 to 7.00 |  | > 7.00 | 6.00 to 7.00 | 0.1 to 1 µM
Cc1ncc(-c2ccc(-c3ccc(N4CC[C@@H](NCC5CC5)C4)nn3)c(O)c2)s1 [Compound 379, 2-{6-[(3R)-3-[(cyclopropylmethyl)amino]pyrrolidin-1-yl]pyridazin-3-yl}-5-(2-methyl-1,3-thiazol-5-yl)phenol] |  |  |  |  |  |  |  |  | < 0.1 µM | > 7.00 | > 7.00 | > 7.00 | > 7.00 |  | > 7.00 | > 7.00 | < 0.1 µM
CC(C)(C)N[C@H]1CCN(c2ccc(-c3ccc(-c4cn[nH]c4)cc3O)nn2)C1 [Compound 261] |  |  |  |  |  |  |  |  | < 0.1 µM | > 7.00 | > 7.00 | 6.00 to 7.00 | 6.00 to 7.00 |  | > 7.00 | > 7.00 | 0.1 to 1 µM
Cc1nc2cc(O)c(-c3cnc(N4CC[C@H](NC(C)(C)C)C4)nn3)cc2o1 [Compound 809] | 1 to 10 µM | > 7.00 | > 7.00 | 1 to 10 µM | 5.00 to 6.00 | 5.00 to 6.00 | 6.00 to 7.00 | 5.00 to 6.00 |  |  |  |  |  |  |  |  | 
COc1cc(-c2cc(O)c(-c3ccc(N4CC[C@@H](NC5(C)CCC5)C4)nn3)cc2F)cnn1 [Compound 286] |  |  |  |  |  |  |  |  | 0.1 to 1 µM | > 7.00 | > 7.00 | 5.00 to 6.00 | 5.00 to 6.00 |  | > 7.00 | 6.00 to 7.00 | 1 to 10 µM
Oc1cc(-c2cnc(C(F)F)s2)c(F)cc1-c1ccc(N2CCC(NC3CCC3)C2)nn1 (stereo not drawn) [Compound 389] |  |  |  |  |  |  |  |  | 1 to 10 µM | 6.00 to 7.00 | 6.00 to 7.00 | 5.00 to 6.00 | 5.00 to 6.00 |  | 6.00 to 7.00 | 5.00 to 6.00 | 1 to 10 µM
Cc1cc(-c2ccc(-c3ccc(N4CCC(NCC5CC5)C4)nn3)c(O)c2)ncn1 (stereo not drawn) [Compound 369] |  |  |  |  |  |  |  |  | 1 to 10 µM | 5.00 to 6.00 | 5.00 to 6.00 | 5.00 to 6.00 | 5.00 to 6.00 |  | 6.00 to 7.00 | 5.00 to 6.00 | 1 to 10 µM
Oc1cc(-c2cnc(C3CC3)s2)c(F)cc1-c1ccc(N2CCC(NC3CCC3)C2)nn1 (stereo not drawn) [Compound 444] |  |  |  |  |  |  |  |  | > 10 µM | < 5.00 | < 5.00 | < 5.00 | < 5.00 |  | 5.00 to 6.00 | < 5.00 | > 10 µM
COc1cc(-c2ccc(-c3ccc(N4CCC(NC5CC(F)(F)C5)C4)nn3)c(O)c2)cnn1 (stereo not drawn) [Compound 334, 2-(6-(3-((3,3-difluorocyclobutyl)amino)pyrrolidin-1-yl)pyridazin-3-yl)-5-(6-methoxypyridazin-4-yl)phenol] |  |  |  |  |  |  |  |  | 0.1 to 1 µM | > 7.00 | > 7.00 | 6.00 to 7.00 | 6.00 to 7.00 |  | 6.00 to 7.00 | 6.00 to 7.00 | 1 to 10 µM
Cc1ncc(-c2ccc(-c3ccc(N4CCC(NC5CCC5)C4)nn3)cc2F)s1 (stereo not drawn) [Compound 344] |  |  |  |  |  |  |  |  | 1 to 10 µM | 5.00 to 6.00 | 5.00 to 6.00 | 5.00 to 6.00 | 5.00 to 6.00 |  | 6.00 to 7.00 | 5.00 to 6.00 | 1 to 10 µM
